{"source": "patent US5723114A", "about": "“Penetration enhancing compositions and methods of their use” (Cellegy Pharmaceuticals Inc., priority 1996, dated 1998)", "key": {"[1]": {"test_system": "skin barrier (flanks of hairless mice)", "experiment": "TEWL topical studies: barrier recovery after acetone or tape stripping with topical proton-pump inhibitors", "assay_type": "in vivo", "settings": "DCCD-treated skin immersed in an acidic buffer", "description": "Proton-pump inhibitors: N,N'-dicyclohexylcarbodiimide (DCCD); 1-10 mM); N-ethyl maleimide (NEM; 1 mM); 7-chloro-4-nitrobenz-2-oxa-1,3-diazole (NBD Cl; 1 mM) and bafilomycin A1 (10 μM) were prepared in vehicle (i.e., 70% propylene glycol, 30% ethanol). Flanks of hairless mice were pre-treated for 30 minutes to 1 hour with drug or vehicle alone before breaking the barrier with acetone. TEWL readings were taken at various time points as described above, followed by additional treatments with drug or vehicle. The DCCD-override study included immersion of flanks in HEPES buffer at pH 5.5 or 7.4 after the pre-treatment with either drug or vehicle and after breaking the barrier with either acetone or by tape stripping.\nTest results are shown in FIG. 7 (NEM, NBD-chloride, BAF)."}, "[2]": {"test_system": "skin barrier (stratum corneum, treated flank of hairless mouse)", "experiment": "TEWL (water permeability) after oleic acid treatment and application of drug delivery compound", "assay_type": "in vivo", "settings": "for TEWL (T = 4 hours): vehicle 266±22; for water permeability: words", "description": "(§1) A female hairless mouse, aged 8 weeks, was treated with oleic acid. After oleic acid treatment, epicholesterol, which substitutes for cholesterol, or transvaccenic acid or stearyl amine, both of which substitute for free fatty acid, was applied to the animal.\nTEWL (trans-epidermal water loss) was measured before and after treatment at convenient time intervals when the animal was alert. An Evaperimeter (ServoMed) was used.\n(§2) First, TEWL of the left (LHS) and right (RHS) dorsal sides was measured. Then, the animal was anesthetized by 0.25 ml chloral hydrate (CH) IP injection. At t=0, an aliquot of 30 μl oleic acid solution (5% in propylene glycol/ethanol 7:3 (v/v)) was applied directly to both sides of the animal (~1.5×3 cm) using a Hamilton syringe. Two hours after oleic acid treatment, the TEWL rates of both sides were measured, and the RHS was treated with 30 μl of epicholesterol alone and with transvaccenic acid or stearylamine (1.5% in propylene glycol/ethanol 7:3 (v/v)). TEWL was measured thereafter every 2 or 3 hours.\n(§3) The mice were kept under anesthesia until the harvest of tissue samples and then sacrificed. At time zero, the tested drug delivery compound listed in Tables 2, 3 and 4 below was applied to the whole treated flank of each mouse. After four hours TEWL was measured again and two drug formulations,one containing lidocaine in a vehicle of a mixture of propylene glycol and ethanol and the other containing Leuteinizing Hormone Releasing Hormone (LHRH) in a vehicle of 60% ethanol, 20% propylene glycol and 20% water. Residual formulation was removed from the skin surface with cotton balls three times and the cotton balls were put into vial #1. Five tape-strippings were conducted at the treated skin sites, and each tape was put into an individual vial numbered 2-6. At the same time, blood was drawn and stored under refrigeration. Urine was collected from the mice during the two hour drug application period and placed into vial #8."}, "[3]": {"experiment": "Percutaneous lidocaine delivery (scintillation counting of plasma and body)", "parameters": "species or system hairless mouse", "settings": "mouse, in vivo", "description": "as §1, §2, §3\nAfter an additional two hours, the treated skin was cut off, the subcutaneous fat was removed, and the whole skin was placed into vial #7 to which 1 ml of tissue solubilizer was added, and the mixture was allowed to digest overnight at 55° C. The corpse was digested in 100 ml of saponification mix at 55° C. overnight.\nFor analysis, 10 ml of Scintisafe (30% ) Scintillation media (Fisher Scientific, Fairlawn, N.J.) was added to vials 1-6, and 8. The blood samples were centrifuged, and an aliquot of 100-200 μl was placed into vial #9 and 10 ml of Scintisafe (30%) was added. Similar aliquots of the corpse digest were placed into vials #10 and #11. To vials #9, 10, and 11, 100 μl of 30% hydrogen peroxide was added to decolorize the contents for about two hours. Then […] of Scintisafe (30%) and 150 μl of acetic acid were added and the mixture was let stand overnight. All vials were subjected to scintillation counting as described above. The parameters for the vehicle are as follows: TEWL 266±22 (T=4 hours); plasma concentration 0.31±0.03%; total body concentration 13.13±0.83(% dose/ml plasma); N=14."}, "[4]": {"settings": "Table 2/Table 3, no hourly application, TRIS 50 mM, HEPES 20 mM"}}, "note": "Where a name gives a salt, the structure may show the parent alone."}
{"smiles": "C(=NC1CCCCC1)=NC1CCCCC1", "note": "[DCCD, N,N'-dicyclohexylcarbodiimide]", "values": [{"measurement": "barrier recovery, override study", "setting": "[1]", "result": "normalized (corrected) the rate of barrier recovery"}]}
{"smiles": "O=S(=O)(O)CCN1CCN(CCO)CC1", "note": "[HEPES, (N-[2-Hydroxyethyl]piperazine-N'-[2-ethanesulfonic acid])]", "values": [{"measurement": "TEWL (T = 4 hours)", "setting": "[2]; Table 2/Table 3, hourly application, HEPES 20 mM, listed as HEPES (pH 5.5)", "result": "560 ± 125"}, {"measurement": "TEWL (T = 4 hours)", "setting": "[2]; Table 2/Table 3, hourly application, HEPES 20 mM, listed as HEPES (pH 7.4)", "result": "460 ± 24"}, {"measurement": "TEWL (T = 4 hours)", "setting": "[2]; [4]", "result": "360 ± 18"}, {"measurement": "water permeability", "setting": "[2]; alone, single application, pH 5.4", "result": "approached statistical significance (p=0.05-0.10)"}, {"measurement": "water permeability", "setting": "[2]; hourly to maintain pH 5.5", "result": "significant increases"}, {"measurement": "water permeability", "setting": "[2]; hourly to maintain pH 7.4", "result": "increased water permeability was significant"}, {"measurement": "lidocaine delivery", "setting": "[3]; pH 5.4", "result": "approached statistical significance (p=0.05-0.10)"}, {"measurement": "lidocaine delivery", "setting": "[3]; pH 5.5", "result": "significant increases"}, {"measurement": "lidocaine delivery", "setting": "[3]; pH 7.4", "result": "only increased water permeability was significant"}]}
{"smiles": "NC(CO)(CO)CO", "note": "[TRIS, Tris(hydroxymethyl) aminomethyl maleate]", "values": [{"measurement": "TEWL (T = 4 hours)", "setting": "[2]; [4]", "result": "583 ± 109"}, {"measurement": "water permeability", "setting": "[2]; alone, pH 5.5", "result": "significantly increased"}, {"measurement": "lidocaine delivery", "setting": "[3]; pH 5.5", "result": "very significantly (p≤0.001) increased"}]}
{"smiles": "CC(C)CCC[C@@H](C)[C@H]1CC[C@H]2[C@@H]3CC=C4C[C@H](O)CC[C@]4(C)[C@H]3CC[C@]12C", "note": "[epicholesterol]", "values": [{"measurement": "TEWL (T = 4 hours)", "setting": "[2]; Table 4, synthetic lipid analogs in propylene glycol/ethanol", "result": "397 ± 55"}, {"measurement": "Plasma Conc. (lidocaine)", "setting": "[3]", "result": "0.24 ± 0.05", "unit": "% dose/ml plasma"}, {"measurement": "Total Body Conc. (lidocaine)", "setting": "[3]", "result": "11.40 ± 1.98", "unit": "%"}, {"measurement": "lidocaine delivery", "setting": "[3]", "result": "significantly increased"}]}
